Assay results published in patent US20100298141A1, “SUBSTITUTED PYRIDINE N-OXIDE HERBICIDES” (E. I. DU PONT DE NEMOURS AND COMPANY, priority 2007, published 2010).

How the values were obtained:
corn = assay: Test C pre-/postemergence test; type: in vivo, Zea mays
Excerpt: (§1) Seeds of plant species selected from blackgrass (Alopecurus myosuroides), downy brome (Bromus tectorum), green foxtail (Setaria viridis), Italian ryegrass (Lolium multiflorum), wheat (Triticum aestivum), wild oat (Avena fatua), catchweed bedstraw (Galium aparine), Russian thistle (Salsola kali), […] (Cynodon dactylon), Surinam grass (Brachiaria decumbens), cocklebur (Xanthium strumarium), corn (Zea mays), crabgrass (Digitaria sanguinalis), woolly cupgrass (Eriochloa villosa), giant foxtail (Setaria faberii), Goosegrass (Eleusin indica), johnsongrass (Sorghum halepense), kochia (Kochia scoparia), lambsquarters (Chenopodium album), morningglory (Ipomoea coccinea), eastern black nightshade (Solanum ptycanthum), yellow nutsedge (Cyperus esculentus), pigweed (Amaranthus retroflexus), common ragweed (Ambrosia elation), soybean (Glycine max), common (oilseed) sunflower (Helianthus annuus), and velvetleaf (Abutilon theophrasti) were planted and treated preemergence with test chemicals formulated in a non-phytotoxic solvent mixture which included a surfactant. At the same time, plants selected from these crop and weed species and also winter barley (Hordeum vulgare), canarygrass (Phalaris minor), and chickweed (Stellaria media) were treated with postemergence applications of some of the test chemicals formulated in the same manner. Plants ranged in height from 2 to 18 cm (1- to 4-leaf stage) for postemergence treatments. […] At time of treatment, test pots were flooded to 3 cm above the soil surface, treated by application of test compounds directly to the paddy water, and then maintained at that water depth for the duration of the test. […] A dash (-) response means no test result.

wheat = assay: Test A pre-/postemergence greenhouse test; type: in vivo, Triticum aestivum; conditions: for Wheat plant response rating: 0 to 100 scale
Procedure, shortened: (§2)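 Pots of loam–sand soil sown with the test species are sprayed preemergence on the soil surface; emerged seedlings (1–2 leaves, 2–10 cm) are sprayed postemergence at the same time. The vehicle is a non-phytotoxic solvent mixture with surfactant. Injury is scored visually after ~10 d in greenhouse.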

crabgrass = assay: Test A pre-/postemergence greenhouse test; type: in vivo, Digitaria sanguinalis; conditions: for Crabgrass, Large plant response rating: 0 to 100 scale
Procedure, shortened: as §2

giant foxtail [1] = assay: Test C pre-/postemergence test; type: in vivo, Setaria faberii; conditions: Preemergence
Excerpt: as §1

lambsquarters = assay: Test C pre-/postemergence test; type: in vivo, Chenopodium album; conditions: Preemergence
Excerpt: as §1

downy brome = assay: Test C pre-/postemergence test; type: in vivo, Bromus tectorum
Excerpt: as §1

soybean = assay: Test C pre-/postemergence test; type: in vivo, Glycine max; conditions: Preemergence
Excerpt: as §1

giant foxtail [2] = assay: Test A pre-/postemergence greenhouse test; type: in vivo, Setaria faberi; conditions: for Foxtail, Giant plant response rating: 0 to 100 scale
Procedure, shortened: as §2

Goosegrass = assay: Test C pre-/postemergence test; type: in vivo, Eleusin indica; conditions: Preemergence
Excerpt: as §1

common ragweed = assay: Test C pre-/postemergence test; type: in vivo, Ambrosia elation; conditions: Preemergence
Excerpt: as §1

cocklebur = assay: Test C pre-/postemergence test; type: in vivo, Xanthium strumarium
Excerpt: as §1

yellow nutsedge = assay: Test C pre-/postemergence test; type: in vivo, Cyperus esculentus; conditions: Preemergence
Excerpt: as §1

umbrella sedge = assay: Test C flooded paddy test; type: in vivo, Cyperus difformis; conditions: Flood
Procedure, shortened: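 Flooded 3 cm over soil; compound into paddy water; depth kept constant. Greenhouse 13–15 d.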

woolly cupgrass = assay: Test C pre-/postemergence test; type: in vivo, Eriochloa villosa; conditions: Preemergence
Excerpt: as §1

morningglory = assay: Test A pre-/postemergence greenhouse test; type: in vivo, Ipomoea spp.; conditions: for Morningglory plant response rating: 0 to 100 scale
Procedure, shortened: as §2

johnsongrass = assay: Test C pre-/postemergence test; type: in vivo, Sorghum halepense; conditions: Preemergence
Excerpt: as §1

[3] = 62 g ai/ha, Preemergence, scale 0 to 100
[4] = Preemergence, 31 g ai/ha, scale 0 to 100 (0 no effect, 100 complete control)
[5] = preemergence, 125 g ai/ha, scale 0 (no effect) to 100 (complete control)
[6] = Postemergence, 125 g ai/ha, 0 is no effect, 100 is complete control
[7] = Postemergence, 500 g ai/ha, 0 is no effect, 100 is complete control
[8] = Preemergence, 125 g ai/ha, 0 no effect, 100 complete control
[9] = Preemergence, 500 g ai/ha, 0 to 100 scale where 0 is no effect and 100 is complete control
[10] = 31 g ai/ha, scale 0 to 100 (0 no effect, 100 complete control)

Cn1nc(C(F)(F)F)c(C[S+]([O-])c2cc(C(F)(F)F)cc[n+]2[O-])c1Cl (racemic) [Compound 34]
30: Wheat plant response rating (wheat; [8]) | Plant response rating (0 to 100), Cocklebur (cocklebur; Preemergence, 250 g ai/ha) | Morningglory plant response rating (morningglory; [7])
35: Cupgrass, Woolly plant response rating (woolly cupgrass; 62 g ai/ha, scale 0 to 100) | Plant response rating, Cupgrass, Woolly (woolly cupgrass; [10])
70: Crabgrass, Large plant response rating (crabgrass; [7]) | Plant response rating, Crabgrass, Large (crabgrass; [9]) | Nutsedge, Yellow plant response rating (yellow nutsedge; 62 g ai/ha, scale 0 to 100) | Plant response rating, Nutsedge, Yellow (yellow nutsedge; [10])
100: Foxtail, Giant plant response rating (giant foxtail [2]; [8]) | Plant response rating, Foxtail, Giant (giant foxtail [2]; [9]) | Plant response rating (0 to 100), Goosegrass (Goosegrass; 250 g ai/ha) | Plant response rating (0 to 100), Johnsongrass (johnsongrass; 250 g ai/ha)
20: Plant response rating (0 to 100), Corn (corn; Preemergence, 250 g ai/ha) | Foxtail, Giant plant response rating (giant foxtail [1]; 62 g ai/ha, scale 0 to 100) | Plant response rating, Foxtail, Giant (giant foxtail [1]; [10]) | Plant response rating (0 to 100), Bromegrass, Downy (downy brome; Preemergence, 250 g ai/ha) | Bromegrass, Downy plant response rating (downy brome; [5])
90: Plant response rating, Sedge, Umbrella (umbrella sedge; 250 g ai/ha, scale 0 to 100, 0 no effect, 100 complete control, 13 to 15 days)
5: Corn plant response rating (corn; [5])
50: Plant response rating, Wheat (wheat; [9]) | Plant response rating (0 to 100), Foxtail, Giant (giant foxtail [1]; 250 g ai/ha) | Lambsquarters plant response rating (lambsquarters; 62 g ai/ha, scale 0 to 100) | Morningglory plant response rating (morningglory; [8])
98: Goosegrass plant response rating (Goosegrass; 62 g ai/ha, scale 0 to 100) | Plant response rating, Goosegrass (Goosegrass; [10])
0: Corn plant response rating (corn; [3]) | Plant response rating, Corn (corn; [4]) | Wheat plant response rating (wheat; [6]) | Wheat plant response rating (wheat; [7]) | Plant response rating, Lambsquarters (lambsquarters; [10]) | Bromegrass, Downy plant response rating (downy brome; [3]) | Plant response rating, Bromegrass, Downy (downy brome; [4]) | Soybean plant response rating (soybean; 62 g ai/ha, scale 0 to 100) | Plant response rating, Soybean (soybean; [10]) | Cocklebur plant response rating (cocklebur; [3]) | Plant response rating, Cocklebur (cocklebur; [4]) | Cocklebur plant response rating (cocklebur; [5]) | Plant response rating, Sedge, Umbrella (umbrella sedge; [10]) | Morningglory plant response rating (morningglory; [6])
80: Plant response rating, Morningglory (morningglory; [9])
45: Ragweed plant response rating (common ragweed; 62 g ai/ha, scale 0 to 100) | Plant response rating, Ragweed (common ragweed; [10])
60: Crabgrass, Large plant response rating (crabgrass; [8]) | Foxtail, Giant plant response rating (giant foxtail [2]; [7])
85: Plant response rating, Sedge, Umbrella (umbrella sedge; 62 g ai/ha, scale 0 to 100, 0 no effect, 100 complete control, 13 to 15 days) | Plant response rating, Sedge, Umbrella (umbrella sedge; 125 g ai/ha, scale 0 to 100, 0 no effect, 100 complete control, 13 to 15 days) | Johnsongrass plant response rating (johnsongrass; 62 g ai/ha, scale 0 to 100) | Plant response rating, Johnsongrass (johnsongrass; [10])
10: Crabgrass, Large plant response rating (crabgrass; [6]) | Foxtail, Giant plant response rating (giant foxtail [2]; [6])
75: Plant response rating (0 to 100), Cupgrass, Woolly (woolly cupgrass; 250 g ai/ha)
